“Also recorded” adds a separate entry of the source.
Columns and labels:
[1] = Murine kidney ischemia-reperfusion injury model; type: in vivo, C57BL/6 mice; conditions: mice, 30 min ischemia
Procedure: • Figure 1: Overview of chemical structures of different necrostatins. Structural differences between Nec-1f in comparison to known necroptosis inhibitors Nec-1 and Nec-1s. Highlighted are the main residues involved in facilitating protection from necroptosis and/or ferroptosis. • Figure 2: Biotinylation of Nec-1. Simplified scheme of linking the target molecule Nec-1 to a biotin anker. […] (A, B) Inhibition of cell death by Nec-1f in NIH3T3 cells was assessed by flow cytometry. Cells were treated with the ferroptosis inducer RSL-3 (1.13 µM) for 6 h with or without simultaneous substitution of necrostatins. The percentage of cells positive for annexinV and 7-AAD was recorded. (C, D) Viability of NIH3T3 cells after induction of ferroptosis. Cells were treated with 1.13 µM RSL-3 for 6 h and collected for flow cytometry. […] (A, B) Inhibition of necroptotic cell death by Nec-1f in NIH3T3 cells was assessed by flow cytometry. Cells were treated with the TNF, Birinapant and z-VAD-fmk (TSZ) to induce necroptosis. After 18 h necroptosis induction with or without simultaneous substitution of necrostatins the cells were harvested and stained for flow cytometry. The percentage of cells positive for annexinV and 7-AAD was recorded. (C, D) Viability of NIH3T3 cells 18h after induction of necroptosis via TSZ treatment. […] Animals were subjected to 30 min of ischemia after i.p. injection of 0.6 mg Nec-1f per kg bodyweight or the respective vehicle control in PBS. (A, B) After 48h mice were sacrificed and serum creatinine levels and serum urea levels were measured as markers of renal function and intoxication. Error bars represent standard deviation. • Figure 6: Synthesis of 5-[(7-Chloro-1H-indol-3-yl)methyl]-3-methyl-2-thioxo-imidazolidin-4-one (1-3; Nec-1f) according to example 2. • Figure 7: Synthesis of 5-[(3aS,4R,6aR)-2-Oxo-1,3,3a,4,6,6a-hexahydrothieno[3,4-d]imidazol-4-yl]-N-[[1-[2-[2-[2-[[3-[(1-methyl-5-oxo-2-thioxo-imidazolidin-4-yl)methyl]-1H-indol-7-yl]oxy]ethoxy]ethoxy]ethyl]triazol-4-yl]methyl]pentanamide (2-8; biotinylated Nec-1) according to example 3. […]

[2] = tested on: NIH3T3 cells; assay: Inhibition of TNF/Birinapant/zVAD (TSZ)-induced necroptosis, flow cytometry (annexinV / 7-AAD); type: cell-based, Murine; conditions: TNF + Birinapant + z-VAD-fmk (TSZ), 18 h
Procedure: (§1) • Figure 1: Overview of chemical structures of different necrostatins. Structural differences between Nec-1f in comparison to known necroptosis inhibitors Nec-1 and Nec-1s. Highlighted are the main residues involved in facilitating protection from necroptosis and/or ferroptosis. • Figure 2: Biotinylation of Nec-1. Simplified scheme of linking the target molecule Nec-1 to a biotin anker. […] (A, B) Inhibition of cell death by Nec-1f in NIH3T3 cells was assessed by flow cytometry. Cells were treated with the ferroptosis inducer RSL-3 (1.13 µM) for 6 h with or without simultaneous substitution of necrostatins. The percentage of cells positive for annexinV and 7-AAD was recorded. (C, D) Viability of NIH3T3 cells after induction of ferroptosis. Cells were treated with 1.13 µM RSL-3 for 6 h and collected for flow cytometry. […] (A, B) Inhibition of necroptotic cell death by Nec-1f in NIH3T3 cells was assessed by flow cytometry. […] The percentage of cells positive for annexinV and 7-AAD was recorded. […] (A, B) After 48h mice were sacrificed and serum creatinine levels and serum urea levels were measured as markers of renal function and intoxication. […]
(§2) Phosphatidylserine exposure to the outer cell membrane of apoptotic cells or at the inner plasma membrane of necrotic cells and incorporation of 7-AAD into necrotic cells were quantified by fluorescence-activated cell sorting (FACS) analysis. […]

[3] = tested on: NIH3T3 cells; assay: Inhibition of RSL-3-induced ferroptosis, flow cytometry (annexinV / 7-AAD); type: cell-based, Murine; conditions: RSL-3 1.13 µM for 6 h, with simultaneous necrostatin
Procedure: as §1, §2

[4] = 0.6 mg Nec-1f per kg bodyweight i.p. 15 min before ischemia, 48 h after reperfusion

CN1C(=O)C(Cc2c[nH]c3c(Cl)cccc23)NC1=S (centres unmarked) [Nec-1f, 5-[(7-Chloro-1H-indol-3-yl)methyl]-3-methyl-2-thioxo-imidazolidin-4-one]
protection in animal model of renal ischemia-reperfusion injury ([1]; 0.6 mg Nec-1f per kg bodyweight i.p.): protective | serum creatinine levels (marker of renal function) [1, 4]: reversed | serum urea levels (intoxication marker) [1, 4]: reversed | assays used to detect necroptosis (cell death / viability, annexinV and 7-AAD) [2]: protects cells from undergoing necroptosis; also recorded: reversed | assays used to detect ferroptosis (cell death / viability, annexinV and 7-AAD) [3]: protects cells from undergoing ferroptosis; also recorded: reversed
